Results taken from publication PMC7541553 (Molecular cancer therapeutics, 2020).

Set-up: species or system BALB/C mice
Settings: mouse, in vivo, iv

Q: Which “t1/2 in the circulation” value does the source give for Arg-Gly-Asp [RGD] here?
A: The value was 33.4 ± 0.9 min.
